Reference: the NIST ThermoML archive (doi:10.1016/j.jct.2016.10.023)

Assay: xn = mol fraction of the nth substance listed
Settings: Constant-volume piezometry

CCCCC [pentane] + CCCO
Settings	mass density [kg/m3]
433.15 K, 35839 kPa, Liquid, x1 = 0.5	609.23
433.15 K, 36095 kPa, Liquid, x1 = 0.2	661.31
433.15 K, 41420 kPa, Liquid, x1 = 0.8	572.89
437.15 K, 2040 kPa, Gas, x1 = 0.8	58.65
438.15 K, 1323 kPa, Gas, x1 = 0.5	30.1
438.15 K, 2052 kPa, Gas, x1 = 0.8	58.65
438.15 K, 2515 kPa, Liquid, x1 = 0.5	509.1
440.15 K, 2121 kPa, Liquid, x1 = 0.2	584.41
443.15 K, 781 kPa, Gas, x1 = 0.5	15.58
443.15 K, 1062 kPa, Gas, x1 = 0.8	22.61
443.15 K, 1353 kPa, Gas, x1 = 0.5	30.1
443.15 K, 1529 kPa, Gas, x1 = 0.8	36.83
443.15 K, 2108 kPa, Gas, x1 = 0.8	58.64
443.15 K, 3419 kPa, Liquid, x1 = 0.2	584.3
443.15 K, 4067 kPa, Liquid, x1 = 0.5	508.96
443.15 K, 5776 kPa, Liquid, x1 = 0.5	521.85
443.15 K, 6119 kPa, Liquid, x1 = 0.8	468.84
443.15 K, 7864 kPa, Liquid, x1 = 0.2	598.01
443.15 K, 11620 kPa, Liquid, x1 = 0.8	498.47
443.15 K, 13293 kPa, Liquid, x1 = 0.5	550.88
443.15 K, 15549 kPa, Liquid, x1 = 0.2	617.55
443.15 K, 19116 kPa, Liquid, x1 = 0.8	523.16
443.15 K, 24271 kPa, Liquid, x1 = 0.5	577.21
443.15 K, 29321 kPa, Liquid, x1 = 0.2	638.71
443.15 K, 31113 kPa, Liquid, x1 = 0.5	589.73
443.15 K, 32587 kPa, Liquid, x1 = 0.8	550.89
443.15 K, 37375 kPa, Liquid, x1 = 0.5	600.38
443.15 K, 43094 kPa, Liquid, x1 = 0.2	660.83
446.15 K, 2393 kPa, Gas, x1 = 0.8	74.06
447.15 K, 1740 kPa, Gas, x1 = 0.5	40.63
448.15 K, 1748 kPa, Gas, x1 = 0.5	40.63
448.15 K, 2548 kPa, Liquid, x1 = 0.9	408.95
448.15 K, 2624 kPa, Liquid, x1 = 0.8	419.92
449.15 K, 2796 kPa, Liquid, x1 = 0.8	419.9
451.15 K, 2529 kPa, Gas, x1 = 0.9	83.67
452.15 K, 2545 kPa, Gas, x1 = 0.9	83.66
453.15 K, 804 kPa, Gas, x1 = 0.5	15.57
453.15 K, 1101 kPa, Gas, x1 = 0.8	22.6
453.15 K, 1255 kPa, Gas, x1 = 0.2	25.01
453.15 K, 1405 kPa, Gas, x1 = 0.5	30.08
453.15 K, 1584 kPa, Gas, x1 = 0.8	36.81
453.15 K, 1789 kPa, Gas, x1 = 0.5	40.62
453.15 K, 2048 kPa, Gas, x1 = 0.5	51.26
453.15 K, 2206 kPa, Gas, x1 = 0.8	58.61
453.15 K, 2494 kPa, Gas, x1 = 0.8	74.04
453.15 K, 2562 kPa, Gas, x1 = 0.9	83.66
453.15 K, 3375 kPa, Liquid, x1 = 0.9	408.84
453.15 K, 3511 kPa, Liquid, x1 = 0.8	419.81
453.15 K, 7204 kPa, Liquid, x1 = 0.5	508.66
453.15 K, 7807 kPa, Liquid, x1 = 0.2	583.93
453.15 K, 8728 kPa, Liquid, x1 = 0.8	468.58
453.15 K, 9366 kPa, Liquid, x1 = 0.5	521.54
453.15 K, 12785 kPa, Liquid, x1 = 0.2	597.62
453.15 K, 14688 kPa, Liquid, x1 = 0.8	498.18
453.15 K, 17282 kPa, Liquid, x1 = 0.5	550.54
453.15 K, 21030 kPa, Liquid, x1 = 0.2	617.14
453.15 K, 22882 kPa, Liquid, x1 = 0.8	522.84
453.15 K, 28840 kPa, Liquid, x1 = 0.5	576.84
453.15 K, 34516 kPa, Liquid, x1 = 0.2	638.29
453.15 K, 37125 kPa, Liquid, x1 = 0.8	550.54
455.15 K, 2058 kPa, Gas, x1 = 0.5	51.26
455.15 K, 2617 kPa, Liquid, x1 = 0.5	469.97
459.15 K, 2107 kPa, Liquid, x1 = 0.2	549.17
459.25 K, 2109 kPa, Liquid, x1 = 0.2	549.17
460.15 K, 2449 kPa, Liquid, x1 = 0.2	549.14
461.15 K, 3036 kPa, Gas, x1 = 0.8	106.72
463.15 K, 825 kPa, Gas, x1 = 0.5	15.56
463.15 K, 1134 kPa, Gas, x1 = 0.8	22.59
463.15 K, 1296 kPa, Gas, x1 = 0.2	25
463.15 K, 1450 kPa, Gas, x1 = 0.5	30.07
463.15 K, 1641 kPa, Gas, x1 = 0.8	36.79
463.15 K, 1866 kPa, Gas, x1 = 0.5	40.6
463.15 K, 2150 kPa, Gas, x1 = 0.5	51.24
463.15 K, 2308 kPa, Gas, x1 = 0.8	58.58
463.15 K, 2637 kPa, Gas, x1 = 0.8	74
463.15 K, 2727 kPa, Gas, x1 = 0.9	83.62
463.15 K, 3075 kPa, Liquid, x1 = 0.5	452.77
463.15 K, 3080 kPa, Gas, x1 = 0.8	106.71
463.15 K, 3117 kPa, Liquid, x1 = 0.9	355.23
463.15 K, 3523 kPa, Liquid, x1 = 0.2	549.04
463.15 K, 3571 kPa, Liquid, x1 = 0.5	459.88
463.15 K, 4516 kPa, Liquid, x1 = 0.5	469.76
463.15 K, 5048 kPa, Liquid, x1 = 0.9	408.62
463.15 K, 5052 kPa, Liquid, x1 = 0.9	408.62
463.15 K, 5310 kPa, Liquid, x1 = 0.8	419.58
463.15 K, 10451 kPa, Liquid, x1 = 0.5	508.36
463.15 K, 11344 kPa, Liquid, x1 = 0.8	468.31
463.15 K, 12276 kPa, Liquid, x1 = 0.2	583.56
463.15 K, 12696 kPa, Liquid, x1 = 0.5	521.23
463.15 K, 17686 kPa, Liquid, x1 = 0.2	597.23
463.15 K, 17835 kPa, Liquid, x1 = 0.8	497.88
463.15 K, 20989 kPa, Liquid, x1 = 0.5	550.21
463.15 K, 26488 kPa, Liquid, x1 = 0.2	616.73
463.15 K, 26685 kPa, Liquid, x1 = 0.8	522.53
463.15 K, 33534 kPa, Liquid, x1 = 0.5	576.47
463.15 K, 41577 kPa, Liquid, x1 = 0.8	550.2
463.15 K, 41859 kPa, Liquid, x1 = 0.2	637.82
464.15 K, 3225 kPa, Liquid, x1 = 0.9	355.21
465.15 K, 3139 kPa, Gas, x1 = 0.9	123.69
466.15 K, 3167 kPa, Gas, x1 = 0.9	123.69
468.15 K, 2722 kPa, Gas, x1 = 0.5	72.79
468.15 K, 3224 kPa, Gas, x1 = 0.9	123.67
468.15 K, 3337 kPa, Liquid, x1 = 0.5	442.3
468.15 K, 3480 kPa, Liquid, x1 = 0.8	346.36
468.15 K, 3796 kPa, Liquid, x1 = 0.8	362.98
469.15 K, 3297 kPa, Gas, x1 = 0.9	134.47
469.15 K, 3585 kPa, Liquid, x1 = 0.8	346.34
470.15 K, 2757 kPa, Gas, x1 = 0.5	72.78
470.15 K, 3441 kPa, Liquid, x1 = 0.9	310.06
470.15 K, 3577 kPa, Liquid, x1 = 0.9	332
473.15 K, 846 kPa, Gas, x1 = 0.5	15.56
473.15 K, 1166 kPa, Gas, x1 = 0.8	22.58
473.15 K, 1339 kPa, Gas, x1 = 0.2	24.99
473.15 K, 1500 kPa, Gas, x1 = 0.5	30.05
473.15 K, 1696 kPa, Gas, x1 = 0.8	36.78
473.15 K, 1943 kPa, Gas, x1 = 0.5	40.58
473.15 K, 2238 kPa, Gas, x1 = 0.5	51.21
473.15 K, 2408 kPa, Gas, x1 = 0.8	58.55
473.15 K, 2703 kPa, Gas, x1 = 0.5	67.68
473.15 K, 2775 kPa, Gas, x1 = 0.8	73.97
473.15 K, 2808 kPa, Gas, x1 = 0.5	72.77
473.15 K, 2888 kPa, Gas, x1 = 0.9	83.58
473.15 K, 3309 kPa, Gas, x1 = 0.8	106.65
473.15 K, 3339 kPa, Liquid, x1 = 0.5	418.35
473.15 K, 3349 kPa, Gas, x1 = 0.9	123.64
473.15 K, 3414 kPa, Gas, x1 = 0.9	134.44
473.15 K, 3511 kPa, Gas, x1 = 0.9	164.35
473.15 K, 3553 kPa, Gas, x1 = 0.9	189.91
473.15 K, 3564 kPa, Gas, x1 = 0.9	202.87

Liquid
Settings	mass density [kg/m3]
438.95 K, x1 = 0.2	584.46
446.85 K, x1 = 0.8	419.95
447.55 K, x1 = 0.9	408.96
454.85 K, x1 = 0.5	469.97
458.15 K, x1 = 0.2	549.2
462.15 K, x1 = 0.5	452.82
462.85 K, x1 = 0.9	355.24
463.55 K, x1 = 0.8	363.07
466.15 K, x1 = 0.5	442.34
467.15 K, x1 = 0.8	346.37
467.15 K, x1 = 0.9	334.99
470.15 K, x1 = 0.8	334.76
470.15 K, x1 = 0.9	313.16
470.85 K, x1 = 0.9	302.48
471.25 K, x1 = 0.9	282.74
471.95 K, x1 = 0.9	244.86
472.05 K, x1 = 0.9	241.54
472.15 K, x1 = 0.9	237.12
472.65 K, x1 = 0.8	316.17
